Measurements: patent US7985760B2, “Piperidinetriol derivatives as inhibitors of glycosyceramid synthase” (Actelion Pharmaceuticals Ltd., priority 2002, dated 2011)
Read-outs that look alike come from different tables or passages of the source.

Experiments:
[1] = molecular target: T1, human recombinant GCS expressed in insect cells (Homo sapiens, UniProt Q16739); experiment: Inhibition of GCS; format: biochemical
T1 construct: made in house; host or cells: insect cells
T1 sequence (Q16739 1-394): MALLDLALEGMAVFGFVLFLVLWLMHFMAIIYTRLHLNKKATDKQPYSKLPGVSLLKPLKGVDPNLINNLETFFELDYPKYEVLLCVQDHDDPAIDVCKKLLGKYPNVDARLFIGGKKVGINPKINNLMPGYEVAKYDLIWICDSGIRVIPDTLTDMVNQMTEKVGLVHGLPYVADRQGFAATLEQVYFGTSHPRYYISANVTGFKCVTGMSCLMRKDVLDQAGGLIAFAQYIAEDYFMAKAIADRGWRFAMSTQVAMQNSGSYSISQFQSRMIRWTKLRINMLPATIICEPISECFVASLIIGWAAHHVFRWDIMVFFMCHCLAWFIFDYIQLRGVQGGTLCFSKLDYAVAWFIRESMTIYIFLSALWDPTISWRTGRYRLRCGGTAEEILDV

[2] = molecular target: T2, non-lysosomal-β-glucocerebrosidase (Homo sapiens, UniProt Q9HCG7); experiment: Inhibition of non-lysosomal-β-glucocerebrosidase; format: biochemical; details: whole cell extracts of MCF7 as enzyme source; 4-MU β-glucoside substrate; pH 5.8
T2 construct: whole cell extracts of MCF7(a human breast carcinoma cell line) was used as the source of the enzyme; endogenous in cells; host or cells: MCF7 whole cell extract
T2 sequence (Q9HCG7 1-927): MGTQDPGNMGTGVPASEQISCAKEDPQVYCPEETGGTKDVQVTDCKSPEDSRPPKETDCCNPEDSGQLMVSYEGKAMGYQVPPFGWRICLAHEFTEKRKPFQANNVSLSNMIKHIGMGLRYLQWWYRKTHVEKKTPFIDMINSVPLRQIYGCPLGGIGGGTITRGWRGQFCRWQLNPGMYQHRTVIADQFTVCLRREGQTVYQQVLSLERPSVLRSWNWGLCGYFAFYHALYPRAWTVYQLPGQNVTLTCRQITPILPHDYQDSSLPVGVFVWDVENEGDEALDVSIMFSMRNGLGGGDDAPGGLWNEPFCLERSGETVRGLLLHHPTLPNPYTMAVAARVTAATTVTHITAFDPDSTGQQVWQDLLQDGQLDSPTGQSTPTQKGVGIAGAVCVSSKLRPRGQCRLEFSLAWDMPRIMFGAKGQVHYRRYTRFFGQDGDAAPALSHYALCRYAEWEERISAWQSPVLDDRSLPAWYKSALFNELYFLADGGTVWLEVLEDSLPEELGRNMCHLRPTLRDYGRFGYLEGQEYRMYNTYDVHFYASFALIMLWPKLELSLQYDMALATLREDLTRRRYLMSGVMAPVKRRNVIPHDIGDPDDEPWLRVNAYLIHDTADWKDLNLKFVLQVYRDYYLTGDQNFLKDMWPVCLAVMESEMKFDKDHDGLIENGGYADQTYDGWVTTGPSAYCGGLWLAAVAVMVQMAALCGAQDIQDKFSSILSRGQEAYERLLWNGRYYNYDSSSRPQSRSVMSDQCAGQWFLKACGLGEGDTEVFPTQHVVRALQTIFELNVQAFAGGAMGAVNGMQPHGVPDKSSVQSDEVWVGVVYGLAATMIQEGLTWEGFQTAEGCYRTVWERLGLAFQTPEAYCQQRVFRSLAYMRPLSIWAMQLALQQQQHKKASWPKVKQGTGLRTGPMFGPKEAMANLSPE

human GCS = molecular target: T3, human GCS (Homo sapiens, UniProt Q16739); experiment: Cell-based IC50 for GCS inhibition by measuring glucosylceramide (GlcCer) depletion; details: MCF-7 cells cultured for 5-7 days; GlcCer quantified by HPTLC; read-out: Inhibition of GCS Cellular-based (IC50 μM)
T3 construct: Human mammary epithelial cells (MCF-7) were cultured for 5-7 days, with varying concentrations of a compound of the invention; endogenous in cells; host or cells: MCF-7
T3 sequence (Q16739 1-394): T1 sequence (Q16739 1-394)

[3] = human recombinant GCS expressed in insect cells, read-out: Inhibition of GCS (IC50)

| IC50 [1, 3] [nM] | IC50 [2] [nM] | IC50 (human GCS) [µM] | IC50 [1] [nM] | Structure (SMILES) |
| --- | --- | --- | --- | --- |
| 2700 | 110 | – | – | COc1cc(OCc2ccccc2)ccc1CN1C[C@H](O)[C@@H](O)[C@H](O)[C@@H]1CO [Example 1, 3,4,5-Piperidinetriol, 2-(hydroxymethyl)-1-[[2-methoxy-4-(phenylmethoxy)phenyl]methyl]-, (2S,3R,4R,5S)] |
| 1800 | 750 | – | – | CN(C)c1ccc(CN2C[C@H](O)[C@@H](O)[C@H](O)[C@@H]2CO)c(F)c1C#N [Example 3, 3,4,5-Piperidinetriol, 1-[(3-cyano-4-dimethylamino-2-fluorophenyl)methyl]-2-(hydroxymethyl)-, (2S,3R,4R,5S)] |
| 670 | 69 | – | – | O=C(NCc1ccc(F)cc1)c1ccc(CN2C[C@H](O)[C@@H](O)[C@H](O)[C@@H]2CO)cc1 [Example 6, Benzamide, N-[(4-fluorophenyl)methyl]-4-[[(2S,3R,4R,5S)-3,4,5-trihydroxy-2-(hydroxymethyl)-1-piperldinyl]methyl]-,] |
| 280 | 84 | – | – | CC(NC(=O)c1ccc(CN2C[C@H](O)[C@@H](O)[C@H](O)[C@@H]2CO)cc1)c1ccccc1 (stereo partly drawn) [Example 7, Benzamide, N-[1-phenylethyl]4-[[(2S,3R,4R,5S)-3,4,5-trihydroxy-2-(hydroxymethyl)-1-piperidinyl]-methyl]-,] |
| 490 | 42 | – | – | C[C@@H](NC(=O)c1ccc(CN2C[C@H](O)[C@@H](O)[C@H](O)[C@@H]2CO)cc1)c1ccc(F)cc1 [Example 8, Benzamide, N-[1-(R)-(4-fluorophenyl)ethyl]4-[[(2S,3R,4R,5S)-3,4,5-trihydroxy-2-(hydroxymethyl)-1-piperidinyl]methyl]-,] |
| 320 | 5 | – | – | OC[C@H]1[C@@H](O)[C@H](O)[C@@H](O)CN1Cc1ccc(OCc2ccccc2)c(Cl)c1 [Example 10, 3,4,5-Piperidinetriol, 2-(hydroxymethyl)-1-[[3-chloro-4-(phenylmethoxy)phenyl]methyl]-, (2S,3R,4R,5S)] |
| 210 | 3 | < 0.01 | – | OC[C@H]1[C@@H](O)[C@H](O)[C@@H](O)CN1Cc1ccc(OCc2ccccc2)cc1 [Example 11, 3,4,5-Piperidinetriol, 2-(hydroxymethyl)-1-[[4-(phenylmethoxy)phenyl]methyl]-, (2S,3R,4R,5S)] |
| 290 | 2 | – | – | OC[C@H]1[C@@H](O)[C@H](O)[C@@H](O)CN1Cc1ccc(/C=C/c2ccccc2)cc1 [Example 13, 3,4,5-Piperidinetriol, 1-[(4-trans-styrylphenyl)methyl]-2-(hydroxymethyl)-, (2S,3R,4R,5S)] |
| 1400 | 19 | – | – | O=C(c1ccc(CN2C[C@H](O)[C@@H](O)[C@H](O)[C@@H]2CO)cc1)N1CCCc2ccccc21 [Example 14] |
| 550 | 120 | – | – | CCN(CC)c1ccc(CN2C[C@H](O)[C@@H](O)[C@H](O)[C@@H]2CO)c(F)c1C#N [Example 18, 3,4,5-Piperidinetriol, 2-(hydroxymethyl)-1-[(3-cyano-4-(diethylamino)-2-fluorophenyl)-methyl]-, (2S,3R,4R,5S)] |
| 410 | 4 | – | – | OC[C@H]1[C@@H](O)[C@H](O)[C@@H](O)CN1Cc1ccc(Oc2ccccc2)cc1 [Example 19, 3,4,5-Piperidinetriol, 2-(hydroxymethyl)-1-[(4-phenoxyphenyl)methyl]-, (2S,3R,4R,5S)] |
| 2500 | 55 | – | – | OC[C@H]1[C@@H](O)[C@H](O)[C@@H](O)CN1Cc1ccc2c(c1)OCCO2 [Example 20, 3,4,5-Piperidinetriol, 1-[(3,4-ethylenedioxyphenyl)methyl]-2-(hydroxymethyl)-, (2S,3R,4R,5S)] |
| – | 910 | – | 910 | O=S(=O)(Nc1ccc(CN2C[C@H](O)[C@@H](O)[C@H](O)[C@@H]2CO)cc1)c1ccccc1 [Example 22, Benzenesulfonamide, N-[4-[[(2S,3S,4R,5S)-3,4,5-trihydroxy-2-(hydroxymethyl)-1-piperidinyl]methyl]-phenyl]-,] |
